Test results as given in ChEMBL document CHEMBL1201862, “PubChem BioAssay data set” (2004).
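Test compounds were applied to cells in 96-well plates for 48 hours at 5 doses. GI50 is the concentration that inhibits growth by half.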 Active and inactive are the calls of the source. Rule as the data show it: active = GI50 up to about 1.1 µM and inactive = higher.

Assays:
Assay in all cases: DTP human tumour cell line panel, 48 h
[1] = tested on: 786-0
[2] = tested on: A549
[3] = tested on: DU-145
[4] = tested on: HCC 2998
[5] = tested on: HCT-15
[6] = tested on: HL-60
[7] = tested on: HT-29
[8] = tested on: KM12
[9] = tested on: M14
[10] = tested on: MCF7
[11] = tested on: MDA-MB-435
[12] = tested on: MDA-N
[13] = tested on: Malme-3M
[14] = tested on: NCI-H522
[15] = tested on: SF-295
[16] = tested on: SK-MEL-2
[17] = tested on: SNB-75
[18] = tested on: SR
[19] = tested on: U-251
[20] = tested on: UACC-257

Structure (SMILES)	GI50 [1]	GI50 [2]	GI50 [3]	GI50 [4]	GI50 [5] [µM]	GI50 [6]	GI50 [7]	GI50 [8]	GI50 [9]	GI50 [10]	GI50 [11]	GI50 [12]	GI50 [13]	GI50 [14]	GI50 [15]	GI50 [16]	GI50 [17]	GI50 [18]	GI50 [19]	GI50 [20]
CN(C)CCNC(=O)c1ccc(NCCCN(C)CCCNc2ccc3c(=O)n(CCN(C)C)c(=O)n4c5ccccc5c(=O)c2c34)c2c(O)c3ccccc3nc12	< 0.01 µM (active)	< 0.01 µM (active)	< 0.01 µM (active)	< 0.01 µM (active)	0.0155	0.0318 µM (active)	< 0.01 µM (active)	< 0.01 µM (active)	0.164 µM (active)	< 0.01 µM (active)	0.0124 µM (active)	0.0332 µM (active)	0.0271 µM (active)	0.0102 µM (active)	< 0.01 µM (active)	0.0315 µM (active)	< 0.01 µM (active)	< 0.01 µM (active)	< 0.01 µM (active)	0.162 µM (active)
Oc1[nH]c(Nc2cccc(CC(F)(F)F)c2)nc2ncnc1-2	> 100 µM (inactive)	> 100 µM (inactive)	> 100 µM (inactive)	> 100 µM (inactive)	> 100	> 100 µM (inactive)	> 100 µM (inactive)	> 100 µM (inactive)	> 100 µM (inactive)	> 100 µM (inactive)	> 100 µM (inactive)	> 100 µM (inactive)	> 100 µM (inactive)	> 100 µM (inactive)	> 100 µM (inactive)	> 100 µM (inactive)	95.5 µM (inactive)	> 100 µM (inactive)	> 100 µM (inactive)	> 100 µM (inactive)
CCOC(=O)c1sc2nc(SC)nc3c2c1N=CN3c1ccccc1Cl	14.1 µM (inactive)	71.3 µM (inactive)	> 100 µM (inactive)	> 100 µM (inactive)	> 100	79.8 µM (inactive)	> 100 µM (inactive)	> 100 µM (inactive)	62.1 µM (inactive)	> 100 µM (inactive)	> 100 µM (inactive)	> 100 µM (inactive)	35 µM (inactive)	20.5 µM (inactive)	32.7 µM (inactive)	49.2 µM (inactive)	14.4 µM (inactive)	26.9 µM (inactive)	21.3 µM (inactive)	> 100 µM (inactive)
COC(C[C@H]1CCCC[C@]1(O)/C(=C\CO[Si](C(C)C)(C(C)C)C(C)C)Sc1ccccc1)OC	39.4 µM (inactive)	28.6 µM (inactive)	40.1 µM (inactive)	16.5 µM (inactive)	21.8	38.2 µM (inactive)	46.1 µM (inactive)	41.3 µM (inactive)	31.6 µM (inactive)	> 100 µM (inactive)	33 µM (inactive)	45.2 µM (inactive)	22.5 µM (inactive)	15.8 µM (inactive)	32.4 µM (inactive)	22.7 µM (inactive)	18.1 µM (inactive)	20.7 µM (inactive)	22.1 µM (inactive)	42.4 µM (inactive)
O=c1c2ccccc2sc2cccc(NCCCN3CCN(CCCNc4cccc5sc6ccccc6c(=O)c45)CC3)c12	> 100 µM (inactive)	> 100 µM (inactive)	> 100 µM (inactive)	> 100 µM (inactive)	> 100	> 100 µM (inactive)	> 100 µM (inactive)	> 100 µM (inactive)	> 100 µM (inactive)	> 100 µM (inactive)	> 100 µM (inactive)	> 100 µM (inactive)	> 100 µM (inactive)	> 100 µM (inactive)	> 100 µM (inactive)	> 100 µM (inactive)	19.5 µM (inactive)	> 100 µM (inactive)	> 100 µM (inactive)	> 100 µM (inactive)
